According to ChEMBL document CHEMBL6071146, “Synthesis and identification of a selective FGFR2 degrader with potent antiproliferative effects in gastric cancer” (Eur J Med Chem, 2024):
The source made the active and inactive calls. No cut-off for these calls is given here.

What was measured:
SNU-16 [1] = test: Antiproliferative activity against human SNU-16 cells incubated for 72 hrs by MTT assay; conditions: SNU-16, 72 h
[2] = Antiproliferative activity against human KATO III cells incubated for 72 hrs by MTT assay
SNU-16 [3] = test: Antitumor activity against human SNU-16 cells xenografted in BALB/c mouse at 20 mg/kg, ip qd for 25 days relative to control; conditions: SNU-16, 600 h, read-out: TGI
[4] = Toxicity in BALB/c mouse xenografted with human SNU-16 cells assessed as obvious side effect at 10 to 20 mg/kg, ip qd for 25 days; type: organism-based; conditions: in vivo, 600 h, dose 10-20 mg/kg, time 25 day
[5] = AUC (0 to t) in Sprague-Dawley rat at 5 mg/kg, ip measured for 24 hrs by LC-MS/MS analysis; type: ADME, organism-based; conditions: in vivo
[6] = Toxicity in BALB/c mouse xenografted with human SNU-16 cells assessed as damage in heart at 10 to 20 mg/kg, ip qd for 25 days by H and E staining based analysis; type: organism-based; conditions: in vivo, 600 h, dose 10-20 mg/kg, time 25 day
KATO III [7] = test: Induction of cell cycle arrest at G0/G1 phase in human KATO III cells assessed as reduction in Cyclin D1 level at 500 to 1000 nM incubated for 24 hrs by Western blot analysis; type: functional, cell-based; conditions: dose 500-1000 nM
[8] = Toxicity in BALB/c mouse xenografted with human SNU-16 cells assessed as damage in lung at 10 to 20 mg/kg, ip qd for 25 days by H and E staining based analysis; type: organism-based; conditions: in vivo, 600 h, dose 10-20 mg/kg, time 25 day
[9] = Volume of distribution at steady state in Sprague-Dawley rat at 2 mg/kg, iv measured for 24 hrs by LC-MS/MS analysis; type: ADME, organism-based; conditions: in vivo, read-out: Vdss
[10] = Tmax in Sprague-Dawley rat at 5 mg/kg, ip measured for 24 hrs by LC-MS/MS analysis; type: ADME, organism-based; conditions: in vivo
[11] = Toxicity in BALB/c mouse xenografted with human SNU-16 cells assessed as damage in liver at 10 to 20 mg/kg, ip qd for 25 days by H and E staining based analysis; type: organism-based; conditions: in vivo, 600 h, dose 10-20 mg/kg, time 25 day
[12] = Half life in Sprague-Dawley rat at 2 mg/kg, iv measured for 24 hrs by LC-MS/MS analysis; type: ADME, organism-based; conditions: in vivo
[13] = Toxicity in BALB/c mouse xenografted with human SNU-16 cells assessed as drug tolerance at 10 to 20 mg/kg, ip qd for 25 days; type: organism-based; conditions: in vivo, 600 h, dose 10-20 mg/kg, time 25 day
SNU-16 [14] = test: Antitumor activity against human SNU-16 cells xenografted in BALB/c mouse assessed as decrease in tumor size at 10 to 20 mg/kg, ip qd for 25 days; type: functional, organism-based; conditions: dose 10-20 mg/kg, time 25.0 day
BaF3 [15] = test: Antiproliferative activity against mouse BaF3 cells stably expressing TEL-FGFR2 incubated for 72 hrs bby CellTiter-Glo assay; conditions: BaF3, 72 h
SNU-16 [16] = test: Induction of cell cycle arrest at G0/G1 phase in human SNU-16 cells assessed as increase in p21 level at 500 to 1000 nM incubated for 24 hrs by Western blot analysis; type: functional, cell-based; conditions: dose 500-1000 nM
KATO III [17] = test: Induction of cell cycle arrest at G0/G1 phase in human KATO III cells assessed as reduction in CDK4 level at 500 to 1000 nM incubated for 24 hrs by Western blot analysis; type: functional, cell-based; conditions: dose 500-1000 nM
Homo sapiens = species: Homo sapiens; test: Induction of VEGFR2 (unknown origin) degradation
[18] = Apparent oral clearance in Sprague-Dawley rat at 5 mg/kg, ip measured for 24 hrs by LC-MS/MS analysis; type: ADME, organism-based; conditions: in vivo
[19] = Half life in Sprague-Dawley rat at 5 mg/kg, ip measured for 24 hrs by LC-MS/MS analysis; type: ADME, organism-based; conditions: in vivo
[20] = MRT (infinity) in Sprague-Dawley rat at 2 mg/kg, iv measured for 24 hrs by LC-MS/MS analysis; type: ADME, organism-based; conditions: in vivo
[21] = Apparent volume of distribution during terminal phase in Sprague-Dawley rat at 5 mg/kg, ip measured for 24 hrs by LC-MS/MS analysis; type: ADME, organism-based; conditions: in vivo, read-out: Vz/F
KATO III [22] = test: Induction of cell cycle arrest at G0/G1 phase in human KATO III cells assessed as increase in p21 level at 500 to 1000 nM incubated for 24 hrs by Western blot analysis; type: functional, cell-based; conditions: dose 500-1000 nM
BaF3 [23] = test: Antiproliferative activity against mouse BaF3 cells stably expressing TEL-FGFR3 incubated for 72 hrs bby CellTiter-Glo assay; conditions: BaF3, 72 h
[24] = AUC (0 to t) in Sprague-Dawley rat at 2 mg/kg, iv measured for 24 hrs by LC-MS/MS analysis; type: ADME, organism-based; conditions: in vivo
KATO III [25] = test: Induction of cell cycle arrest at G0/G1 phase in human KATO III cells assessed as reduction in CDK2 level at 500 to 1000 nM incubated for 24 hrs by Western blot analysis; type: functional, cell-based; conditions: dose 500-1000 nM
[26] = Cmax in Sprague-Dawley rat at 5 mg/kg, ip measured for 24 hrs by LC-MS/MS analysis; type: ADME, organism-based; conditions: in vivo
[27] = AUC (infinity) in Sprague-Dawley rat at 5 mg/kg, ip measured for 24 hrs by LC-MS/MS analysis; type: ADME, organism-based; conditions: in vivo
KATO III [28] = test: Induction of apoptosis in human KATO III cells assessed as increase in cleaved caspase-3 level at 0.5 to 1 uM incubated for 24 hrs by Western blot analysis; type: functional, cell-based; conditions: dose 0.5-1 µM
[29] = Clearance in Sprague-Dawley rat at 2 mg/kg, iv measured for 24 hrs by LC-MS/MS analysis; type: ADME, organism-based; conditions: in vivo
KATO III [30] = test: Induction of cell cycle arrest at G0/G1 phase in human KATO III cells assessed as reduction in Cyclin E level at 500 to 1000 nM incubated for 24 hrs by Western blot analysis; type: functional, cell-based; conditions: dose 500-1000 nM
BaF3 [31] = test: Antiproliferative activity against mouse BaF3 cells stably expressing TEL-FGFR1 incubated for 72 hrs bby CellTiter-Glo assay; conditions: BaF3, 72 h
SNU-16 [32] = test: cells; conditions: Homo sapiens, SNU-16, 24 h, read-out: Activity
Description: Induction of apoptosis in human SNU-16 cells assessed as viable cells at 1000 nM incubated for 24 hrs by Annexin V-FITC/PI staining based flow cytometry (Rvb = 77.12 %)

[33] = Oral bioavailability in Sprague-Dawley rat at 5 mg/kg measured for 24 hrs by LC-MS/MS analysis; type: ADME, organism-based; conditions: in vivo
SNU-16 [34] = test: Antitumor activity against human SNU-16 cells xenografted in BALB/c mouse assessed as tumor growth suppression at 10 to 20 mg/kg, ip qd for 25 days; type: functional, organism-based; conditions: dose 10-20 mg/kg, time 25.0 day
[35] = MRT (infinity) in Sprague-Dawley rat at 5 mg/kg, ip measured for 24 hrs by LC-MS/MS analysis; type: ADME, organism-based; conditions: in vivo
[36] = Toxicity in BALB/c mouse xenografted with human SNU-16 cells assessed as weight loss at 10 to 20 mg/kg, ip qd for 25 days; type: organism-based; conditions: in vivo, 600 h, dose 10-20 mg/kg, time 25 day
[37] = Toxicity in BALB/c mouse xenografted with human SNU-16 cells assessed as damage in kidney at 10 to 20 mg/kg, ip qd for 25 days by H and E staining based analysis; type: organism-based; conditions: in vivo, 600 h, dose 10-20 mg/kg, time 25 day
cells [38] = conditions: Homo sapiens, KATO III, 24 h, read-out: Activity
Description: Induction of apoptosis in human KATO III cells assessed as viable cells at 1000 nM incubated for 24 hrs by Annexin V-FITC/PI staining based flow cytometry (Rvb = 87.00 %)

BaF3 [39] = test: Antiproliferative activity against mouse BaF3 cells stably expressing TEL-FGFR4 incubated for 72 hrs bby CellTiter-Glo assay; conditions: BaF3, 72 h
[40] = AUC (infinity) in Sprague-Dawley rat at 2 mg/kg, iv measured for 24 hrs by LC-MS/MS analysis; type: ADME, organism-based; conditions: in vivo
SNU-16 [41] = test: Induction of apoptosis in human SNU-16 cells assessed as increase in cleaved caspase-3 level at 0.5 to 1 uM incubated for 24 hrs by Western blot analysis; type: functional, cell-based; conditions: dose 0.5-1 µM
SNU-16 [42] = test: cells; conditions: Homo sapiens, SNU-16, 24 h, read-out: Activity; remark: listed apart in the source
Description: Induction of apoptosis in human SNU-16 cells assessed as viable cells at 500 nM incubated for 24 hrs by Annexin V-FITC/PI staining based flow cytometry (Rvb = 77.12 %)

SNU-16 [43] = test: Antitumor activity against human SNU-16 cells xenografted in BALB/c mouse assessed as decrease in tumor weight at 10 to 20 mg/kg, ip qd for 25 days; type: functional, organism-based; conditions: dose 10-20 mg/kg, time 25.0 day
cells [44] = conditions: Homo sapiens, KATO III, 24 h, read-out: Activity; remark: listed apart in the source
Description: Induction of apoptosis in human KATO III cells assessed as viable cells at 500 nM incubated for 24 hrs by Annexin V-FITC/PI staining based flow cytometry (Rvb = 87.00 %)

[45] = Toxicity in BALB/c mouse xenografted with human SNU-16 cells assessed as damage in spleen at 10 to 20 mg/kg, ip qd for 25 days by H and E staining based analysis; type: organism-based; conditions: in vivo, 600 h, dose 10-20 mg/kg, time 25 day

COc1cc(OC)cc(N(CCNC(C)C)c2ccc3ncc(-c4cnn(CCCCCC(=O)NCCNc5cccc6c5C(=O)N(C5CCC(=O)NC5=O)C6=O)c4)nc3c2)c1 (configuration not stated)
IC50 (SNU-16 [1]): 1 nM | IC50 [2]: 51 nM

COc1cc(OC)cc(N(CCNC(C)C)c2ccc3ncc(-c4cnn(CCC(=O)NCCNc5cccc6c5C(=O)N(C5CCC(=O)NC5=O)C6=O)c4)nc3c2)c1 (configuration not stated)
IC50 (SNU-16 [1]): 153 nM | IC50 [2]: 701 nM

COc1cc(OC)cc(N(CCNC(C)C)c2ccc3ncc(-c4cnn(CCOCCOCCOCCOCC(=O)NCCNc5cccc6c5C(=O)N(C5CCC(=O)NC5=O)C6=O)c4)nc3c2)c1 (configuration not stated)
IC50 (SNU-16 [1]): 10 nM | IC50 [2]: 158 nM

COc1cc(OC)cc(N(CCNC(C)C)c2ccc3ncc(-c4cnn(CCCCCCCCC(=O)NCCNc5cccc6c5C(=O)N(C5CCC(=O)NC5=O)C6=O)c4)nc3c2)c1 (configuration not stated)
IC50 (SNU-16 [1]): < 0.17 nM | IC50 [2]: < 0.17 nM

COc1cc(OC)cc(N(CCNC(C)C)c2ccc3ncc(-c4cnn(CCCCCCC(=O)NCCNc5cccc6c5C(=O)N(C5CCC(=O)NC5=O)C6=O)c4)nc3c2)c1 (configuration not stated)
inhibition in vivo at 20 mg/kg (SNU-16 [3]): 117% | Activity [4]: Non-Toxic | AUC(0-t) at 24 h [5]: 991 ng·h/mL | Activity [6]: Non-Toxic | Activity (KATO III [7]): Active | Activity [8]: Non-Toxic | Vd [9]: 7.58 L/kg | Tmax [10]: 0.25 h | Activity [11]: Non-Toxic | half-life [12]: 4.65 h | Activity [13]: Non-Toxic | Activity (SNU-16 [14]): Active | IC50 (BaF3 [15]): 22.7 nM | Activity (SNU-16 [16]): Active | Activity (KATO III [17]): Active | Activity (Homo sapiens): inactive | CL/F [18]: 78.2 mL/min/kg | half-life [19]: 7.59 h | MRT inf [20]: 2.27 h | Vd/F [21]: 51.4 L/kg | Activity (KATO III [22]): Active | IC50 (BaF3 [23]): 97.1 nM | AUC(0-t) at 24 h [24]: 544 ng·h/mL | Activity (KATO III [25]): Active | Cmax [26]: 302 ng/mL | AUC(0-inf) [27]: 1070 ng·h/mL | Activity (KATO III [28]): Active | clearance [29]: 59.3 mL/min/kg | Activity (KATO III [30]): Active | IC50 (BaF3 [31]): 138 nM | viability at 1 µM (SNU-16 [32]): 42.7% | bioavailability [33]: 74.8% | Activity (SNU-16 [34]): Active | MRT inf [35]: 6.53 h | IC50 (SNU-16 [1]): < 0.17 nM | Activity [36]: Non-Toxic | Activity [37]: Non-Toxic | viability at 1 µM (cells [38]): 65% | IC50 [2]: < 0.17 nM | IC50 (BaF3 [39]): 332 nM | AUC(0-inf) [40]: 570 ng·h/mL | Activity (SNU-16 [41]): Active | viability at 0.5 µM (SNU-16 [42]): 45.6% | Activity (SNU-16 [43]): Active | viability at 0.5 µM (cells [44]): 66.8% | Activity [45]: Non-Toxic

COc1cc(OC)cc(N(CCNC(C)C)c2ccc3ncc(-c4cnn(CCCCCCCCCC(=O)NCCNc5cccc6c5C(=O)N(C5CCC(=O)NC5=O)C6=O)c4)nc3c2)c1 (configuration not stated)
IC50 (SNU-16 [1]): < 0.17 nM | IC50 [2]: 2 nM

COc1cc(OC)cc(N(CCNC(C)C)c2ccc3ncc(-c4cnn(CC(=O)NCCNc5cccc6c5C(=O)N(C5CCC(=O)NC5=O)C6=O)c4)nc3c2)c1 (configuration not stated)
IC50 (SNU-16 [1]): 48 nM | IC50 [2]: 463 nM

COc1cc(OC)cc(N(CCNC(C)C)c2ccc3ncc(-c4cnn(CCCCCCCC(=O)NCCNc5cccc6c5C(=O)N(C5CCC(=O)NC5=O)C6=O)c4)nc3c2)c1 (configuration not stated)
IC50 (SNU-16 [1]): < 0.17 nM | IC50 [2]: < 0.17 nM

COc1cc(OC)cc(N(CCNC(C)C)c2ccc3ncc(-c4cnn(CCC(=O)NCC(=O)NCCNc5cccc6c5C(=O)N(C5CCC(=O)NC5=O)C6=O)c4)nc3c2)c1 (configuration not stated)
IC50 (SNU-16 [1]): 150 nM | IC50 [2]: 457 nM
